Values of other authors, collected in patent publication US10266741B2, “Apparatus and method for addition of ADH enzyme inhibitors to existing engine cooling systems” (priority 2016, dated 2019).

Tested on: humans
Conditions: ingestion, Federal Register Vol. 63, No. 27, Feb. 10, 1998

OCCO [EG, ethylene glycol]
known toxin to humans at relatively low levels (reported as low as): 1,570 mg/kg
